{"source": "patent US6511967B1", "about": "“Use of an internalizing transferrin receptor to image transgene expression” (The General Hospital Corporation, priority 1999, dated 2003)", "key": {"Gli36EGFR cells [1]": {"system": "Gli36EGFR cells", "description": "Gli36EGFR cells were plated at approximately 10% confluency. Cells were infected the next day (MOI=5) with either one of three amplicons: EZ-TFR (FIG. 12), which was a control having a transferrin receptor gene, but lacking a p450 gene; EZ-p450 (FIG. 11), which was a second control with a p450 gene but no transferrin receptor gene; or PETZ (FIG. 8), which includes both the p450 and transferrin receptor genes. Following a 24 hour incubation with the viral amplicons, cyclophosphamide (CPA) was added in varying concentrations as indicated in the graph of FIG. 13. CPA is a chemotherapeutic compound that is metabolized by the expression product of the p450 gene (cyp2B1 in the rat). Cleavage of CPA yields an active metabolite, which is toxic to the cancer cells. Cell number was measured 72 hours later using a Coulter Counter. The data are presented in the graph in FIG. 13 as a percentage of control, where control cells are virally infected cells in the absence of CPA."}, "ETR+ and ETR− tumors [2]": {"system": "ETR+ and ETR− tumors", "test": "Biodistribution of labeled reporter complex in excised ETR+ and ETR− tumors", "format": "in vivo, nude mice", "description": "A similar 4-fold difference was also observed when In labeled Tf was injected into these animals. The same assay can be used to analyze the biodistribution of other new reporter complexes.\nFirst, rat 9L gliosarcoma cells (Brain Tumor Research Center, San Francisco, Calif.) were grown in Dulbecco's modified Eagle's medium (DMEM, Cellgro, Mediatech, Washington, D.C.) containing 10% fetal bovine serum (FBS, Cellgro).\nThen, ETR− and ETR+ tumors were grown in nude mice by injecting […] cells of either cell line into the left and right flanks of animals (n=12). Each animal was implanted with both tumors in each flank so that it could serve as its own control. Animals were used for histology, MR, and/or biodistribution studies 10 to 14 days after tumor inoculation. The growth characteristics of the tumors were similar and by day 12 all animals had developed tumors 200-400 mg in size."}, "9L3.9 cells": {"system": "9L3.9 cells", "test": "In vitro MR imaging of 9L3.9 cell pellets incubated with reporter complexes (FIG. 7)", "format": "cell-based, rat", "conditions": "spin echo MR imaging", "description": "Concentration labels in FIG. 7 refer to the amount of iron (reporter complex) added to the sample.\nIncubations of the reporter complexes with the cells were carried out at 37° C. The cells were washed and pelleted, and pellets were imaged in microfuge test tubes at room temperature as follows: SE (Spin Echo): TR 3000 ms, multi-echo with TE 25, 50, 75, 100 ms. Slice thickness was 1.9 mm, field of view 8 cm, matrix 256×256, 2 NEX, scan time 26:12 minutes. As shown at the top row in the figure, the Tf-SPDP-CLIO contrast agent provided a change in measured signal at far lower concentrations of the reporter complex."}, "Gli36#6": {"system": "Gli36#6", "test": "In vitro MR imaging of Gli36#6 cells infected with PETZ amplicon and incubated with Tf-MION (FIG. 10A)", "format": "cell-based", "conditions": "10 μg Tf-MION", "description": "In this figure, concentration labels refer to the amount of iron molecules added to the sample. […] Following infection, the cells were allowed to recover and were washed, pelleted, and imaged at room temperature as follows: SE (Spin Echo): TR 3000 ms, multiecho with TE 25, 50, 75, 100ms. Slice thickness 1.9 mm, field of view 8 cm, matrix 256×256, 2 NEX, scan time 26:12 minutes."}, "ETR+ and ETR− tumors [3]": {"system": "ETR+ and ETR− tumors", "test": "In vivo MR imaging of mice with ETR+ and ETR− tumors after intravenous Tf-MION", "design": "species or system nude mice", "conditions": "then tumoral signal intensity returned to baseline", "description": "MR imaging was performed in live animals using a 1.5 T superconducting magnet (Signa 5.0; GE Medical Systems, Milwaukee, Wis.) using a 5-inch surface coil. […] Slice thickness was 3 mm. The field of view (FOV) was 10 cm^2, using a 256×256 imaging matrix and 2-4 acquisition averages. Signal intensity (SI) measurements were obtained in regions of interest (ROI) from tumor and background. To display MION-Tf induced changes, R2 maps of tumors calculated from spin echo images were superimposed on anatomic maps (T1 weighted images). Semiquantitation was done by calibrating R2 maps to known concentrations of radiolabeled superparagmagnetic probes."}, "Gli36EGFR cells [4]": {"system": "Gli36EGFR cells", "test": "In vitro MR imaging of Gli36EGFR cells infected with PETZ amplicon and labeled with Tf-SPDP-CLIO (FIG. 10B)", "format": "cell-based", "conditions": "MOI 20 or 4; 2 hours at 37° C.; especially at MOI of 20", "description": "In another similar experiment, in vitro MR imaging was used to analyze viral transfer of the transferrin receptor and labeling with Tf-SPDP-CLIO. Gli36EGFR cells were uninfected or infected with an HSV-based amplicon (PETZ) driving expression of an altered form of the transferrin receptor (Multiplicity of Infection (MOI) of 20 or 4). After 24 hours, the cells were incubated with the indicated concentrations of Tf-SPDP-CLIO for 2 hours at 37° C. Following incubation, cells were harvested, washed, and pelleted for imaging at room temperature. As a control for non-specific uptake of unconjugated CLIO, infected and uninfected cells were also incubated in a similar fashion with 50 μg of CLIO alone. Concentration numbers along the top of the figure refer to the amount of iron added to the sample in the form of Tf-SPDP-CLIO. The ratio of Tf conjugated to CLIO for Tf-SPDP-CLIO was 4:1. […] The MR imaging conditions were as follows: SE (Spin Echo); TR 3000 ms, multiecho with TE 25, 50, 75, 100 ms. Slice thickness 1.9 mm, field of view 8 cm, matrix 256×256, 2 NEX, scan time 26:12 minutes."}, "[5]": {"system": "Gli36EGFR tumors infected with PETZ", "test": "In vivo MR imaging of gene transfer in bilateral Gli36EGFR brain tumors (FIG. 9)", "design": "species or system nude mice", "conditions": "24 hours after tail-vein injection, 1 mg/kg; 3-D gradient echo", "source_text": "In another example of imaging of in vivo gene transfer, Gli36EGFR cells were implanted into nude mice 8 days prior to imaging to generate bilateral frontal tumors. On day 6 after implantation, tumors on the right were infected with the HSV-based amplicon PETZ (FIG. 8), which drives expression of an altered form of the TfR. Forty-eight hours after virus administration animals were imaged without contrast agent (T1-weighted pre-contrast scan; FIG. 9A) and then injected with Tf-SPDP-CLIO.\nAll contrast agents were injected by tail-vein administration (1 mg/kg Tf-SPDP-CLIO). Scans: (9A) T1 SE 300/16, FOV 8 cm, 256×256, 1.9 thk/0.2 spc; (9B) T1 SE [Omniscan], and (9C) T2 3D GR 38/20/5°, FOV 10 cm, 256×256, 0.5 thk/0.0 spc. [Tf-SPDP-CLIO."}}}
{"molecule": "O=P1(N(CCCl)CCCl)NCCCO1", "note": "(stereo not drawn) [CPA, cyclophosphamide]", "values": [{"measurement": "cells alive, percent of control, no amplicon", "setting": "Gli36EGFR cells [1]; 10^3 μM CPA, 72 hours", "value": "about 80%"}, {"measurement": "cells alive, percent of control, EZ-TFR amplicon", "setting": "Gli36EGFR cells [1]; 10^3 μM CPA, 72 hours, MOI=5", "value": "about 80%"}, {"measurement": "cells alive, percent of control, PETZ amplicon", "setting": "Gli36EGFR cells [1]; 10^3 μM CPA, 72 hours, MOI=5", "value": "less than 10%"}, {"measurement": "CPA concentration from which cell killing is significantly increased", "setting": "Gli36EGFR cells [1]; PETZ and EZ-p450 amplicons", "value": "10^1 μM"}]}
{"molecule": "In labeled Tf: transferrin labeled with In (radioisotope) [reference compound]", "values": [{"measurement": "difference in tumor accumulation, ETR+ vs ETR− tumors", "setting": "ETR+ and ETR− tumors [2]; ETR+ vs ETR− tumors", "value": "~4", "unit": "fold"}]}
{"molecule": "Tf-CLIO: holo-Tf conjugated to cross-linked iron oxide nanoparticles (CLIO) using the periodate method", "values": [{"measurement": "contrast compared with the other reporter complexes", "setting": "9L3.9 cells", "value": "better than the Tf-MION, but not as good as the Tf-SPDP-CLIO"}]}
{"molecule": "Tf-MION: human holo-transferrin covalently conjugated to dextran coated monocrystalline iron oxide nanoparticles by the periodate method", "values": [{"measurement": "change of MR signal of cell pellet due to TfR expression after PETZ infection", "setting": "Gli36#6", "value": "dramatically altered the MR signal"}, {"measurement": "mean accumulation in ETR+ tumors", "setting": "ETR+ and ETR− tumors [2]; 24 hours after IV administration", "value": 3.2, "unit": "% ID/g"}, {"measurement": "mean accumulation in ETR− tumors", "setting": "ETR+ and ETR− tumors [2]; 24 hours after IV administration, same animal", "value": 0.8, "unit": "% ID/g"}, {"measurement": "persistence of MR signal intensity differences of tumors", "setting": "ETR+ and ETR− tumors [3]", "value": "approximately 7 days"}]}
{"molecule": "Tf-SPDP-CLIO: holo-Tf conjugated to CLIO using the crosslinking agent N-succinimidyl 3-(2-pyridyldithio) propionate (SPDP)", "values": [{"measurement": "change in MRI following infection with amplicons expressing the altered transferrin receptor", "setting": "Gli36EGFR cells [4]", "value": "dramatic change in MRI at lower concentrations of iron"}, {"measurement": "appearance of PETZ-infected tumor in MR image", "setting": "[5]", "value": "dark mass"}]}
